# Laboratory results reported in US5081121A, “4(1H)-quinolone derivatives” (priority 1988, dated 1992).
# Like-named read-outs stand apart in the source and are kept apart here.
# Experiments:
# left atrial muscle = assay: Test Method 1: enhancement of contracting force of left atrial muscle extirpated from a guinea pig (electrically stimulated at 1 Hz); type: cell-based; conditions: Krebs-Henseleit solution 32° C.; for EC20: read-out: EC20 (molar concentration for enhancing the left atrial muscle contracting force to the level of 20%); for EC50: read-out: EC50 (molar concentration for enhancing the left atrial muscle contracting force to the level of 50%); for EC100: read-out: EC100 (molar concentration for enhancing the left atrial muscle contracting force to the level of 100%)
# Experimental: (§1) The drug according to the present invention was evaluated with reference to the physiological activities by means of a method using an atrial muscle extirpated from a guinea pig.
# (§2) Male guinea pigs having a body weight of 300-500 g were made swooned by striking his head and were bleeded to death. The heart was extirpated and the right and left atrial muscles were cut off. The tops of each atrial muscle were fixed with cerrefines. The muscle was suspended into an organ-bath in which a Krebs-Henseleit solution (at 32° C.) was filled, and a 95% O2 -5% CO2 gas was flown through the bath. The left atrial muscle was stimulated electrically at a frequency of 1 Hz to stabilize the contracting force of the left atrial muscle. Then, the compounds according to the present invention represented by the general formulae were added to the organ-bath. As for the right atrial muscle, after the pulsation was stabilized, the compounds according to the present invention were added in the organ-bath in the same manner as described above.
# (§3) The compounds according to the present invention represented by the aforementioned general formulae enhanced the left atrial muscle contracting force dependent on their concentrations. The drug concentrations for enhancing the left atrial muscle contracting force to the levels of 20%, 50% and 100%, respectively are listed in Table 2. EC20, EC50 and EC100 indicate the molar concentration for enhancing the left atrial muscle contracting force to the levels of 20%, 50% and 100%, respectively. The enhancing rates of the pulsation of the right atrial muscle are also listed within parentheses. The minus values in parentheses indicate that the pulsation of the right atrial muscle is decreased.
# (§4) As a control drug, theophylline ([…].
# right atrial muscle = assay: Test Method 1: enhancing rate of the pulsation of the right atrial muscle extirpated from a guinea pig; type: cell-based; conditions: EC20; minus values: pulsation is decreased
# Experimental: as §1, §2, §3, §4
Structure (SMILES),EC50 (left atrial muscle; Cavia porcellus) [µM],EC50 (left atrial muscle) [µM],EC20 (left atrial muscle; Cavia porcellus) [µM],EC100 (left atrial muscle; Cavia porcellus) [µM],enhancing rate of the pulsation of the right atrial muscle (in parentheses under EC20) (right atrial muscle) [%],EC20 (molar concentration for enhancing the left atrial muscle contracting force to the level of 20%) (left atrial muscle) [µM],EC100 (molar concentration for enhancing the left atrial muscle contracting force to the level of 100%) (left atrial muscle) [µM]
"O=c1cc[nH]c2cc(N3CCNCC3)ccc12 [Compound 67, 7-piperazinyl-4(1H)-quinolone]",211,,46.8,944,,,
"CCOC(=O)c1c[nH]c2c(OCOC)ccc(OC)c2c1=O [Compound 5, 3-ethoxycarbonyl-5-methoxy-8-methoxymethoxy-4(1H)-quinolone]",,,741,,0.2,,
"CCOc1cc2c(=O)cc[nH]c2cc1OC [Compound 48, 6-ethoxy-7-methoxy-4(1H)-quinolone]",106,,12.6,646,,,
"CC(=O)c1cccc2c(=O)cc[nH]c12 [Compound 44, 8-acetyl-4(1H)-quinolone]",136,,< 100,776,,,
"CCOCCOC(=O)c1c[nH]c2c(OC)ccc(OCC)c2c1=O [Compound 79, 5-ethoxy-3-[(2-ethoxy)ethoxycarbonyl]-8-methoxy-4(1H)-quinolone]",135,,< 100,680,,,
"CCn1ccc(=O)c2cc3c(cc21)OCO3 [Compound 60, 1-ethyl-6,7-methylenedioxy-4(1H)-quinolone]",279,,< 100,,,,
"CCCCOc1cc2[nH]c(C3CC3)cc(=O)c2cc1OC [Compound 115, 7-n-butoxy-2-cyclopropyl-6-methoxy-4(1H)-quinolone]",81.3,,15.3,202,,,
"O=c1cc(C2CC2)[nH]c2ccccc12 [Compound 96, 2-cyclopropyl-4(1H)-quinolone]",374,,123,,,,
"CCCCn1ccc(=O)c2cc(OC)c(OCC)cc21 [Compound 68, 1-n-butyl-7-ethoxy-6-methoxy-4(1H)-quinolone]",19.5,,2.82,,,,
"CCOc1ccc2c(c1)c(=O)ccn2CC [Compound 74, 6-ethoxy-1-ethyl-4(1H)-quinolone]",108,,< 100,546,,,
"CCOc1cc2c(=O)cc(C3CC3)[nH]c2cc1OC [Compound 119, 2-cyclopropyl-6-ethoxy-7-methoxy-4(1H)-quinolone]",84.1,,37.6,,,,
"C=CCOc1cc2[nH]ccc(=O)c2cc1OC [Compound 53, 7-allyloxy-6-methoxy-4(1H)-quinolone]",117,,< 100,240,,,
CCn1ccc(=S)c2cc3c(cc21)OCO3 [Compound 63],112,,42.2,,,,
"CCOC(=O)c1cn(CC)c2c(C)ccc(OC(C)=O)c2c1=O [Compound 82, 5-acetoxy-3-ethoxycarbonyl-1-ethyl-8-methyl-4(1H)-quinolone]",168,,< 100,,,,
"COCOc1cc2[nH]ccc(=O)c2cc1OC [Compound 56, 6-methoxy-7-methoxymethoxy-4(1H)-quinolone]",405,,114,,,,
"O=c1cc[nH]c2ccc(CCO)cc12 [Compound 64, 6-(2-hydroxy)ethyl-4(1H)-quinolone]",234,,157,495,,,
"COc1cc(SC)c2[nH]ccc(=O)c2c1 [Compound 30, 6-methoxy-8-methylsufenyl-4(1H)-quinolone]",78.5,,6.92,881,,,
"CCOC(=O)c1c[nH]c2c(OC)cc(OCC)cc2c1=O [Compound 76, 6-ethoxy-3-ethoxycarbonyl-8-methoxy-4(1H)-quinolone]",73.3,,38.9,305,,,
"COc1cc2[nH]ccc(=O)c2cc1OC [Compound 6, 6,7-dimethoxy-4(1H)-quinolone]",35.5,,10,234,,,
"Cc1cc(Cl)cc2c(=O)cc[nH]c12 [Compound 71, 6-chloro-8-methyl-4(1H)-quinolone]",54.3,,12.3,,,,
"N#CCc1ccc2[nH]ccc(=O)c2c1 [Compound 45, 6-cyanomethyl-4(1H)-quinolone]",274,,< 100,510,,,
"CCn1cc(C(=O)O)c(=O)c2cc(C)ccc21 [Compound 90, 3-carboxyl-1-ethyl-6-methyl-4(1H)-quinolone]",345,,181,394,,,
"C/C=C/Cc1c(O)c(OC)cc2c(=O)cc[nH]c12 [Compound 72, 8-(2-trans-butenyl)-7-hydroxy-6-methoxy-4(1H)-quinolone]",,63.1,,,,35.5,211
"CCn1ccc(=O)c2c(O)ccc(C)c21 [Compound 61, 1-ethyl-5-hydroxy-8-methyl-4(1H)-quinolone]",107,,< 100,,,,
"CCn1cc(C(=O)N2CCN(c3ccccc3OC)CC2)c(=O)c2cc(C)ccc21 [Compound 108, 1-ethyl-3-{1-[4-(2-methoxyphenyl)piperazinyl]carbonyl}-6-methyl-4(1H)-quinolone]",126,,44.2,,,,

# The next lines start with results.
EC50 (left atrial muscle; Cavia porcellus) [µM],EC50 (left atrial muscle) [µM],Structure (SMILES),EC20 (left atrial muscle; Cavia porcellus) [µM],EC100 (left atrial muscle; Cavia porcellus) [µM],enhancing rate of the pulsation of the right atrial muscle (in parentheses under EC20) (right atrial muscle) [%],EC20 (molar concentration for enhancing the left atrial muscle contracting force to the level of 20%) (left atrial muscle) [µM],EC100 (molar concentration for enhancing the left atrial muscle contracting force to the level of 100%) (left atrial muscle) [µM]
327,,"CCn1cc(C(=O)O)c(=O)c2c(C)cccc21 [Compound 87, 3-carboxyl-1-ethyl-5-methyl-4(1H)-quinolone]",< 100,,,,
< 100,,"COc1cc2[nH]c(-c3ccco3)cc(=O)c2cc1OC [Compound 94, 6,7-dimethoxy-2-(2-furyl)-4(1H)-quinolone]",< 100,417,,,
248,,"CCn1ccc(=O)c2ccc(C)cc21 [Compound 57, 1-ethyl-7-methyl-4(1H)-quinolone]",< 100,,,,
202,,"CCOc1cc2c(=O)c(C(=O)O)cn(CC)c2c(C)c1C [Compound 88, 3-carboxyl-7,8-dimethyl-6-ethoxy-1-ethyl-4(1H)-quinolone]",< 100,856,,,
221,,"COc1cc2[nH]cc(C(=O)N3CCC(c4ccccc4)CC3)c(=O)c2cc1OC [Compound 105, 6,7-dimethoxy-3-(4-phenylpiperidinyl)carbonyl-4(1H)-quinolone]",< 100,,,,
394,,"COCCOc1cc2[nH]ccc(=O)c2cc1OC [Compound 55, 6-methoxy-7-(2-methoxy)ethoxy-4(1H)-quinolone]",132,,,,
345,,"CCOC(=O)c1ccc2[nH]ccc(=O)c2c1 [Compound 65, 6-ethoxycarbonyl-4(1H)-quinolone]",< 100,,,,
19.3,,"CCOc1cc2[nH]ccc(=O)c2cc1OCC [Compound 10, 6,7-diethoxy-4(1H)-quinolone]",1.88,116,,,
245,,"COc1ccc(C)c2c(=O)c(C(=O)N3CCC(c4ccccc4)CC3)c[nH]c12 [Compound 106, 8-methoxy-5-methyl-3-(4-phenylpiperidinyl)carbonyl-4(1H)-quinolone]",102,447,,,
115,,"CCn1ccc(=O)c2cc(OC)ccc21 [Compound 73, 1-ethyl-6-methoxy-4(1H)-quinolone]",< 100,241,,,
465,,"CCCn1cc(C(=O)O)c(=O)c2cc(OC)c(OCC)cc21 [Compound 93, 3-carboxyl-7-ethoxy-6-methoxy-1-n-propyl-4(1H)-quinolone]",376,,,,
159,,"C=CCc1cccc2c(=O)cc[nH]c12 [Compound 70, 8-(2-propenyl)-4(1H)-quinolone]",< 100,,,,
178,,"CCn1cc(C(=O)N2CCN(c3ccc([N+](=O)[O-])cc3)CC2)c(=O)c2cc(OC)c(OC)cc21 [Compound 110, 6,7-dimethoxy-1-ethyl-3-{1-[4-(4-nitrophenyl)piperazinyl]carbonyl}-4(1H)-quinolone]",105,,,,
363,,"CCOC(=O)c1c[nH]c2c(S(=O)(=O)c3ccccc3)cccc2c1=O [Compound 83, 3-ethoxycarbonyl-8-phenylsulfonyl-4(1H)-quinolone]",19.5,,,,
462,,"CCOc1cc2c(cc1OC)c(=O)ccn2CC(C)C [Compound 69, 1-i-butyl-7-ethoxy-6-methoxy-4(1H)-quinolone]",4.32,,,,
657,,"COc1cc2c(=O)c(C(=O)O)cn(C)c2c(C)c1C [Compound 89, 3-carboxyl-6-methoxy-1,7,8-trimethyl-4(1H)-quinolone]",< 100,,,,
50.1,,"CCOC(=O)c1cn(CC)c2c(OC)cc(OCC)cc2c1=O [Compound 77, 6-ethoxy-3-ethoxycarbonyl-1-ethyl-8-methoxy-4(1H)-quinolone]",4.73,,,,
< 100,,"CCOc1cc(OC)cc2c(=O)cc[nH]c12 [Compound 47, 8-ethoxy-6-methoxy-4(1H)-quinolone]",< 100,200,,,
